According to publication PMC2903571, “Sterol carrier protein-x gene and effects of sterol carrier protein-2 inhibitors on lipid uptake in Manduca sexta” (BMC Physiology, 2010):
Counter-ions that a name gives are not always drawn.

How the values were obtained:
[1] = design: method as in PMID 6833881; conditions: room temperature; cited from earlier work
[2] = design: method as in PMID 11566796; conditions: cited from earlier work
[3] = biological target: T1, MsSCP-2 (Manduca sexta, UniProt D8VD27); assay: NBD-cholesterol binding assay, recombinant MsSCP-2; conditions: NBD-cholesterol 1 μM, MsSCP-2 1 nM~10 μM, one site binding non-linear regression; read-out: binding affinity (Kd) of MsSCP-2 to NBD-cholesterol
T1 sequence (D8VD27 entry or part of it): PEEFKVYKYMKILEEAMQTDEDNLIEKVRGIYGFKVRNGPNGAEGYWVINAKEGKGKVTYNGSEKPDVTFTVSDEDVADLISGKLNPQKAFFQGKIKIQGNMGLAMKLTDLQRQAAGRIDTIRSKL
Description: (§1) MsSCP-2 binding affinity for NBD-cholesterol, an analog of cholesterol, was determined using NBD-cholesterol binding assays. A 1 ml sample of 10 μM recombinant MsSCP-2 was diluted with 10 mM KHPO4 buffer (pH 7.4) to various concentrations (1 nM~10 μM). Twenty-five microliters of each concentration of MsSCP-2 solution and the control (without MsSCP-2) were thoroughly mixed with 25 μl of NBD-cholesterol solution (1 μM in KHPO4 buffer, pH 7.4) and allowed to equilibrate for 3 minutes to permit stable measurement of the fluorescence signal. NBD-cholesterol fluorescence was excited at 470 nm, and emission was recorded at 530 nm using a fluorescence microplate reader (Model: GeminiXPS, Molecular Devices). Data were fit using a simple, single binding site, non-linear regression model in GraphPad PRISM® software version 4.0 (GraphPad Software Inc., San Diego, CA) using the equation: [drawing 1]
(§2) Where, Kd is the binding affinity, X is the NBD-cholesterol concentration (μM), Y is the total binding (fluorescent intensity unit), and Bmax is the maximum specific binding to be fit. AeSCP-2 and GST were used as a positive control and a negative control, respectively. NBD-cholesterol binding assays for the controls were performed the same as described above for recombinant MsSCP-2.

[4] = biological target: T2, AeSCP-2 (Aedes aegypti, UniProt Q86PR3); assay: NBD-cholesterol binding assay, AeSCP-2 (positive control); conditions: NBD-cholesterol 1 μM, one site binding non-linear regression; read-out: binding affinity (Kd) of AeSCP-2 to NBD-cholesterol
T2 sequence (Q86PR3 1-110): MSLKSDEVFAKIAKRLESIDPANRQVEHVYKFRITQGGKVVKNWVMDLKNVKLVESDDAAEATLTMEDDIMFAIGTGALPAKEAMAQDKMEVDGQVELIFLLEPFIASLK
Description: as §1, §2

[5] = test system: GST; assay: NBD-cholesterol binding assay, GST (negative control); design: species or system bacterial; conditions: negative control protein
Description: as §1, §2

[6] = test system: M. sexta Day 3 4th instar larvae; assay: [3H]-cholesterol uptake (label/chase) in larvae fed SCPIs; type: in vivo, Manduca sexta; conditions: for suppression of cholesterol storage (stored [3H]-cholesterol) in the fat body: within 6 hours of treatment, versus controls; for accumulation of [3H]-cholesterol in the fat body versus controls: within 6 hours post feeding; for [3H]-cholesterol levels in the feces, higher than in the controls: within the 6 hour period; for amount of labeled cholesterol in the hemolymph: 2 to 6 hours post feeding; for hemolymph [3H]-cholesterol levels versus control: all post feeding time points; for total amount of [3H]-cholesterol in the midgut tissue versus controls: over the observed time period (2-6 h), two-way ANOVA
Description: (§3) Collected tissue samples were stored at -80°C.
(§4) Student t-test was used in cases where a pair of treatments was compared to determine the significance of the differences.

[7] = test system: M. sexta Day 3 4th instar larvae; assay: [3H]-palmitic acid uptake (label/chase) in larvae fed SCPIs; type: in vivo, Manduca sexta; conditions: midgut tissue, 2-6 h post feeding
Description: as §3, §4

[8] = test system: Manduca sexta GV1 cells; design: method as in PMID 15627652; conditions: 10 μM; cited from earlier work
[9] = biological target: T1, MsSCP-2; assay: biochemical
Description: (§5) The inhibitory effect of SCPI on cholesterol binding to MsSCP-2 was measured using NBD-cholesterol competition assays. In a 50 μl reaction solution in each well of a 96-well plate purified recombinant MsSCP-2 (5 μM) was incubated with NBD-cholesterol (1.25 μM) in the presence of increased concentrations of a SCPI (0-12.5 μM) in 10 mM KHPO4 buffer (pH 7.4) for 5 min. The fluorescence intensity (excitation/emission = 470/530) of NBD-cholesterol was measured. The background control was NBD-cholesterol alone in 10 mM KHPO4 buffer (pH 7.4). A separate set of tests was performed using NBD-cholesterol with increasing concentrations of a SCPI to assess whether a SCPI interfered with NBD-cholesterol fluorescence. If a SCPI interfered with NBD-cholesterol fluorescence, the background control was NBD-cholesterol along with the SCPI. The net change in NBD-cholesterol fluorescence intensity was calculated by subtracting the fluorescence of the background control from the NBD-cholesterol-MsSCP-2 complex in the absence or presence of an inhibitor. The data were plotted with the relative NBD-cholesterol fluorescent intensity (bound NBD-cholesterol) as the y-axis and the molarities of the inhibitor as the x-axis. Bacterial GST protein and Aedes aegypti SCP-2 protein (AeSCP-2) were used as a negative control and a positive control for the assays, respectively.

[10] = biological target: T2, AeSCP-2; assay: biochemical
Description: as §5

[11] = test system: Day 3 4th instar larvae; assay: Dietary uptake of NBD-cholesterol in larvae fed SCPIs; conditions: mean ± S.D.
Description: NBD-cholesterol and the SCPI were added into the diet and fed to Day 3 4th instar larvae (12 insects (4 insects/time)/group) as described for [^3H]-cholesterol. Total lipids were extracted from tissue samples as described for [^3H]-cholesterol. Dried lipids were re-dissolved in 50 μl methanol and the NBD fluorescent was measured (470/530 nm = excitation/emission). RFU = the relative fluorescent unit (sample FU - blank FU).
**Data were analyzed using two-way ANOVA.

[12] = test system: Manduca sexta larvae; design: method as in PMID 15627652; conditions: cited from earlier work

| SMILES | amount of [3H]-cholesterol in the midgut [6] [DMP/mg protein] | suppression of cholesterol storage (stored [3H]-cholesterol) in the fat body ([6]; fat body) [%] | accumulation of [3H]-cholesterol in the fat body versus controls ([6]; fat body) | [3H]-cholesterol levels in the feces, higher than in the controls [6] [%] | amount of labeled cholesterol in the hemolymph ([6]; SCPI at LD50 dosage in diet) [DPM/mg protein] | hemolymph [3H]-cholesterol levels versus control [6] | total amount of [3H]-cholesterol in the midgut tissue versus controls ([6]; midgut) | [3H]-palmatic acid uptake/levels in the midgut [7] | suppression of cholesterol uptake [8] [%] | EC50 [9] [nM] | EC50 [10] [nM] | NBD-cholesterol, fat body, 2 hour [11] [RFU/mg proteins] | NBD-cholesterol, fat body, 4 hour [11] [RFU/mg proteins] | NBD-cholesterol, fat body, 6 hour [11] [RFU/mg proteins] | NBD-cholesterol, hemolymph, 2 hour [11] [RFU/mg proteins] | NBD-cholesterol, hemolymph, 4 hour [11] [RFU/mg proteins] | NBD-cholesterol, hemolymph, 6 hour [11] [RFU/mg proteins] | NBD-cholesterol, midgut, 2 hour [11] [RFU/mg proteins] | NBD-cholesterol, midgut, 4 hour [11] [RFU/mg proteins] | NBD-cholesterol, midgut, 6 hour [11] [RFU/mg proteins] | also measured |
| --- | --- | --- | --- | --- | --- | --- | --- | --- | --- | --- | --- | --- | --- | --- | --- | --- | --- | --- | --- | --- | --- |
| CC(C)CCC[C@@H](C)[C@H]1CC[C@H]2[C@@H]3CC=C4C[C@@H](O)CC[C@]4(C)[C@H]3CC[C@]12C [Cholesterol, cholesterol] | – | – | – | – | – | – | – | – | – | – | – | – | – | – | – | – | – | – | – | – | solubility in water [1]: ~ 10 nM; flip-flop rate (t1/2) within the lipid bilayer [2]: 1 to 2 min |
| C[C@H](CNc1ccc([N+](=O)[O-])c2nonc12)[C@H]1CC[C@H]2[C@@H]3CC=C4C[C@@H](O)CC[C@]4(C)[C@H]3CC[C@]12C [NBD-cholesterol, 22-(N-(7-nitrobenz-2-oxa-1,3-diazol-4-yl)amino)-23,24-bisnor-5-cholen-3β-ol] | – | – | – | – | – | – | – | – | – | – | – | – | – | – | – | – | – | – | – | – | Kd [3]: 1860 nM; Kd [4]: 820 nM; binding of GST to NBD-cholesterol [5]: little binding |
| CC(=O)Nc1ccc(Nc2nc(-c3ccc(Cl)c(Cl)c3)cs2)cc1 [SCPI-1, N-4-{[4-(3,4-dichlorophenyl)-1,3-thiazol-2-yl]amino}phenyl)aetamide hydrobromide] | 555098.9 | 37 | significantly lower | 265.84 | 28087.6 | significantly lower | significantly lower | suppressed | 15 | 2200 | 900 | 8.01±2.84 | 4.18±1.06 | 3.75±1.10 | 8.62±3.62 | 7.04±1.37 | 5.63±1.62 | 22.77±3.02 | 22.61±4.57 | 17.78±6.43 | total [3H]-cholesterol in the midgut tissue compared with the control group ([6]; midgut, 2 hour time point, SCPI at LD50 dosage in diet): slightly lower |
| COc1cccc(-n2sc3c(c2=S)-c2cc(Cl)ccc2NC3(C)C)c1 [SCPI-2, 8-chloro-2-(3-methoxyphenyl)-4,4-dimethyl-4,5-dihydroisothiazol[5,4-c]quinoline-1(2H)-thione] | 367836.9 | 69 | significantly lower | 369.02 | 29564.4 | significantly lower | significantly lower | suppressed | 22 | 900 | 800 | 4.20±0.57 | 7.74±3.56 | 9.05±4.09 | 4.93±1.26 | 4.58±1.47 | 3.89±0.98 | 21.39±2.77 | 21.45±3.55 | 17.43±6.46 | less stored [3H]-cholesterol in the fat body than for the SCPI-1-treatment ([6]; fat body, 6 hours post feeding): 56%; greater reduction in [3H]-cholesterol uptake/transport than the SCPI-1-treatment ([6]; midgut tissue): 46%; [3H]-cholesterol in the midgut tissue, % of the controls ([6]; midgut, 2 hour post feeding, SCPI at LD50 dosage in diet): 43.18%; lethality to Manduca larvae [12]: more lethal than SCPI-1 |
